Experimental data reported in article PMC10165273, “Itch receptor MRGPRX4 interacts with the receptor activity–modifying proteins” (The Journal of Biological Chemistry, 2023).
Where two headings read alike, the source gives them in different places.

Target: T1, MRGPRX4 (Homo sapiens, UniProt Q96LA9)
T1 construct: expressed in transfected cells; host or cells: HEK293T
Assay: IP1 accumulation HTRF assay, MRGPRX4
Type: cell-based
Design: key to IP1 Basal / IP1 accumulation with YM (Figure 1c) / response to agonist, MRGPRX4 / IP1 accumulation: % IP1: unstimulated mock-transfected = 0%, fully stimulated MRGPRX4 = 100%
Conditions: for IP1 accumulation (normalized): Supplementary Figure 5d-g

[1] = Tet-On MRGPRX4, over 1pg/cell Normalized, Dox 3300 ng/mL (Fig. S5C)

T1 sequence (Q96LA9 whole entry): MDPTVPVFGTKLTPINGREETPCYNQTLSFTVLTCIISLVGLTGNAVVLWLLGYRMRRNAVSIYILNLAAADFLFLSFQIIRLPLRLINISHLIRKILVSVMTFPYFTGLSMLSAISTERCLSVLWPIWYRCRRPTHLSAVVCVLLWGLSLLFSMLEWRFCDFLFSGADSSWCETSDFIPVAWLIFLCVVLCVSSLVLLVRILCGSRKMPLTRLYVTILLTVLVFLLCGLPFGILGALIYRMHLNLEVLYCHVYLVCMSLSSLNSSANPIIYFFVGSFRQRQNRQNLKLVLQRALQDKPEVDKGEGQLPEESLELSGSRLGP

CC(C)[C@H]1CC[C@H](C(=O)N[C@H](Cc2ccccc2)C(=O)O)CC1 [Nateglinide]
EC50 (Tet-On MRGPRX4 1pg/cell, Dox 3300 ng/mL (Fig. S5B), read-out: IP1 EC50): 9.26 µM | Emax (Tet-On MRGPRX4 1pg/cell, Dox 3300 ng/mL (Fig. S5B), read-out: IP1 Emax): 34.4% | Emax (Tet-On MRGPRX4 1pg/cell, Dox 3300 ng/mL (Fig. S5B), read-out: IP1 span): 35.4% | IP1 Basal (Tet-On MRGPRX4 1pg/cell, No dox (Fig. S5B)): -1.503 | Emax (Tet-On MRGPRX4 1pg/cell, No dox (Fig. S5B), read-out: IP1 Emax): 25% | Emax (Tet-On MRGPRX4 1pg/cell, No dox (Fig. S5B), read-out: IP1 span): 26.5% | IP1 Basal (Tet-On MRGPRX4 2pg/cell, Dox 13 ng/mL (Fig. S5A)): 6.149 | EC50 (Tet-On MRGPRX4 2pg/cell, Dox 13 ng/mL (Fig. S5A), read-out: IP1 EC50): 7.35 µM | Emax (Tet-On MRGPRX4 2pg/cell, Dox 13 ng/mL (Fig. S5A), read-out: IP1 Emax): 84.9% | EC50 (Tet-On MRGPRX4 2pg/cell, Dox 13 ng/mL (Fig. S5A), read-out: IP1 logEC50 (converted)): 7.35 µM | Emax (Tet-On MRGPRX4 2pg/cell, Dox 13 ng/mL (Fig. S5A), read-out: IP1 span): 78.8% | IP1 Basal (Tet-On MRGPRX4 2pg/cell, Dox 40 ng/mL (Fig. S5A)): 7.421 | EC50 (Tet-On MRGPRX4 2pg/cell, Dox 40 ng/mL (Fig. S5A), read-out: IP1 EC50): 6.07 µM | Emax (Tet-On MRGPRX4 2pg/cell, Dox 40 ng/mL (Fig. S5A), read-out: IP1 Emax): 87.5% | Emax (Tet-On MRGPRX4 2pg/cell, Dox 40 ng/mL (Fig. S5A), read-out: IP1 span): 80.1% | IP1 Basal (Tet-On MRGPRX4 2pg/cell, Dox 1100 ng/mL (Fig. S5A)): 11.03 | Emax (Tet-On MRGPRX4 2pg/cell, Dox 1100 ng/mL (Fig. S5A), read-out: IP1 Emax): 101% | EC50 (Tet-On MRGPRX4 2pg/cell, Dox 1100 ng/mL (Fig. S5A), read-out: IP1 logEC50 (converted)): 5.41 µM | Emax (Tet-On MRGPRX4 2pg/cell, Dox 1100 ng/mL (Fig. S5A), read-out: IP1 span): 90.4% | IP1 Basal (Tet-On MRGPRX4 2pg/cell, Dox 3300 ng/mL (Fig. S5A)): 10.81 | EC50 (Tet-On MRGPRX4 2pg/cell, Dox 3300 ng/mL (Fig. S5A), read-out: IP1 EC50): 6.36 µM | Emax (Tet-On MRGPRX4 2pg/cell, Dox 3300 ng/mL (Fig. S5A), read-out: IP1 Emax): 106% | Emax (Tet-On MRGPRX4 2pg/cell, Dox 3300 ng/mL (Fig. S5A), read-out: IP1 span): 95.6% | IP1 logEC50 (Tet-On MRGPRX4 2pg/cell, Dox […] (Fig. S5A)): -5.040 | IP1 Basal (Tet-On MRGPRX4 2pg/cell, No dox (Fig. S5A)): 0.7169 | Emax (Tet-On MRGPRX4 2pg/cell, No dox (Fig. S5A), read-out: IP1 Emax): 72.3% | Emax (Tet-On MRGPRX4 2pg/cell, No dox (Fig. S5A), read-out: IP1 span): 71.5% | IP1 Basal (Tet-On MRGPRX4, over 1pg/cell Normalized, Dox 13 ng/mL (Fig. S5C)): -3.443 | EC50 (Tet-On MRGPRX4, over 1pg/cell Normalized, Dox 13 ng/mL (Fig. S5C), read-out: IP1 EC50): 19 µM | Emax (Tet-On MRGPRX4, over 1pg/cell Normalized, Dox 13 ng/mL (Fig. S5C), read-out: IP1 Emax): 59.2% | Emax (Tet-On MRGPRX4, over 1pg/cell Normalized, Dox 13 ng/mL (Fig. S5C), read-out: IP1 span): 62.7% | IP1 Basal (Tet-On MRGPRX4, over 1pg/cell Normalized, Dox 40 ng/mL (Fig. S5C)): -3.289 | EC50 (Tet-On MRGPRX4, over 1pg/cell Normalized, Dox 40 ng/mL (Fig. S5C), read-out: IP1 EC50): 13.5 µM | Emax (Tet-On MRGPRX4, over 1pg/cell Normalized, Dox 40 ng/mL (Fig. S5C), read-out: IP1 Emax): 63.5% | Emax (Tet-On MRGPRX4, over 1pg/cell Normalized, Dox 40 ng/mL (Fig. S5C), read-out: IP1 span): 66.8% | IP1 Basal (Tet-On MRGPRX4, over 1pg/cell Normalized, Dox 1100 ng/mL (Fig. S5C)): -2.284 | EC50 (Tet-On MRGPRX4, over 1pg/cell Normalized, Dox 1100 ng/mL (Fig. S5C), read-out: IP1 EC50): 10.7 µM | Emax (Tet-On MRGPRX4, over 1pg/cell Normalized, Dox 1100 ng/mL (Fig. S5C), read-out: IP1 Emax): 100% | Emax (Tet-On MRGPRX4, over 1pg/cell Normalized, Dox 1100 ng/mL (Fig. S5C), read-out: IP1 span): 102% | IP1 Basal [1]: 3.818 | IP1 logEC50 [1]: -5.036 | EC50 (Tet-On MRGPRX4, over 1pg/cell Normalized, Dox 3300 ng/mL (Fig. S5C), read-out: IP1 EC50): 9.2 µM | Emax (Tet-On MRGPRX4, over 1pg/cell Normalized, Dox 3300 ng/mL (Fig. S5C), read-out: IP1 Emax): 111% | Emax (Tet-On MRGPRX4, over 1pg/cell Normalized, Dox 3300 ng/mL (Fig. S5C), read-out: IP1 span): 107% | IP1 Basal (Tet-On MRGPRX4, over 1pg/cell Normalized, No dox (Fig. S5C)): -1.726 | Emax (Tet-On MRGPRX4, over 1pg/cell Normalized, No dox (Fig. S5C), read-out: IP1 Emax): 55.6% | Emax (Tet-On MRGPRX4, over 1pg/cell Normalized, No dox (Fig. S5C), read-out: IP1 span): 57.3% | IP1 Basal (Tet-On MRGPRX4:RAMP Ratio 1:0 (Fig. S5D-F)): 8.926 | EC50 (Tet-On MRGPRX4:RAMP Ratio 1:0 (Fig. S5D-F), read-out: IP1 EC50): 4.06 µM | Emax (Tet-On MRGPRX4:RAMP Ratio 1:0 (Fig. S5D-F), read-out: IP1 Emax): 107% | Emax (Tet-On MRGPRX4:RAMP Ratio 1:0 (Fig. S5D-F), read-out: IP1 span): 97.7% | IP1 Basal (Tet-On MRGPRX4:RAMP Ratio 1:0, no dox (Fig. S5D-F)): 0.2822 | Emax (Tet-On MRGPRX4:RAMP Ratio 1:0, no dox (Fig. S5D-F), read-out: IP1 Emax): 2.46% | Emax (Tet-On MRGPRX4:RAMP Ratio 1:0, no dox (Fig. S5D-F), read-out: IP1 span): 2.17% | IP1 Basal (construct FLAG-MRGPRX4-1D4 (Fig. S4A-F)): 6.903 | EC50 (construct FLAG-MRGPRX4-1D4 (Fig. S4A-F), read-out: IP1 EC50): 10.1 µM | Emax (construct FLAG-MRGPRX4-1D4 (Fig. S4A-F), read-out: IP1 Emax): 102% | Emax (construct FLAG-MRGPRX4-1D4 (Fig. S4A-F), read-out: IP1 span): 95.1% | IP1 Basal (construct FLAG-MRGPRX4-GFP10-1D4 (Fig. S4A-F)): 7.722 | EC50 (construct FLAG-MRGPRX4-GFP10-1D4 (Fig. S4A-F), read-out: IP1 EC50): 9.91 µM | Emax (construct FLAG-MRGPRX4-GFP10-1D4 (Fig. S4A-F), read-out: IP1 Emax): 110% | Emax (construct FLAG-MRGPRX4-GFP10-1D4 (Fig. S4A-F), read-out: IP1 span): 102% | IP1 Basal (construct FLAG-NLuc-HT7-MRGPRX4-GFP10-1D4 (Fig. S4A-F)): 8.575 | EC50 (construct FLAG-NLuc-HT7-MRGPRX4-GFP10-1D4 (Fig. S4A-F), read-out: IP1 EC50): 6.41 µM | Emax (construct FLAG-NLuc-HT7-MRGPRX4-GFP10-1D4 (Fig. S4A-F), read-out: IP1 Emax): 55.2% | Emax (construct FLAG-NLuc-HT7-MRGPRX4-GFP10-1D4 (Fig. S4A-F), read-out: IP1 span): 46.6% | IP1 Basal (construct HA-MRGPRX4-1D4 (Fig. S4A-F)): 13.13 | EC50 (construct HA-MRGPRX4-1D4 (Fig. S4A-F), read-out: IP1 EC50): 10.7 µM | Emax (construct HA-MRGPRX4-1D4 (Fig. S4A-F), read-out: IP1 Emax): 91.5% | Emax (construct HA-MRGPRX4-1D4 (Fig. S4A-F), read-out: IP1 span): 78.4% | IP1 accumulation (normalized) (log [nateglinide] (M) -4, MRGPRX4 no dox): 1.452 | IP1 accumulation (normalized) (log [nateglinide] (M) -4.69897, MRGPRX4): 92.3953 | IP1 accumulation (normalized) (log [nateglinide] (M) -5.39794, MRGPRX4): 57.3306 | IP1 accumulation (normalized) (log [nateglinide] (M) -6.09691, MRGPRX4): 20.5565 | IP1 accumulation (normalized) (log [nateglinide] (M) -6.79588, MRGPRX4): 15.0154 | IP1 accumulation (normalized) (log [nateglinide] (M) -7.49485, MRGPRX4): 11.7498
